The results in this text go back to patent publication US8969360B2, “Compounds useful as inhibitors of ATR kinase” (Vertex Pharmaceuticals Incorporated, priority 2013, dated 2015).

For one experiment, the target named is T1, ATR kinase (Homo sapiens, UniProt Q13535).
T1 construct: Assays were carried out at 25° C. in the presence of 5 nM full-length ATR
In words: ATR Inhibition Assay (radioactive-phosphate incorporation). The class given is biochemical. The following applies: Ki(app); 5 nM full-length ATR, 10 μM ATP, 800 μM target peptide, 25° C. How it is done:
Compounds were screened for their ability to inhibit ATR kinase using a radioactive-phosphate incorporation assay. Assays were carried out in a mixture of 50 mM Tris/HCl (pH 7.5), 10 mM MgCl2 and 1 mM DTT. Final substrate concentrations were 10 μM [γ-33P]ATP (3 mCi 33P ATP/mmol ATP, Perkin Elmer) and 800 μM target peptide (ASELPASQPQPFSAKKK (SEQ. ID NO: 1)).
Assays were carried out at 25° C. in the presence of 5 nM full-length ATR. An assay stock buffer solution was prepared containing all of the reagents listed above, with the exception of ATP and the test compound of interest. 13.5 μL of the stock solution was placed in a 96 well plate followed by addition of 2 μL of DMSO stock containing serial dilutions of the test compound (typically starting from a final concentration of 15 μM with 3-fold serial dilutions) in duplicate (final DMSO concentration 7%). The plate was pre-incubated for 10 minutes at 25° C. and the reaction initiated by addition of 15 μL [γ-33P]ATP (final concentration 10 μM).
The reaction was stopped after […] by the addition of 30 μL, 0.1M phosphoric acid containing 2 mM ATP. A multiscreen phosphocellulose filter 96-well plate (Millipore, Cat no. MAPHN0B50) was pretreated with 100 μL 0.2M phosphoric acid prior to the addition of 45 μL of the stopped assay mixture. The plate was washed with 5×200 μL 0.2M phosphoric acid. After drying, 100 μL Optiphase ‘SuperMix’ liquid scintillation cocktail (Perkin Elmer) was added to the well prior to scintillation counting (1450 Microbeta Liquid Scintillation Counter, Wallac).
After removing mean background values for all of the data points, Ki(app) data were calculated from non-linear regression analysis of the initial rate data using the Prism software package (GraphPad Prism version 3.0cx for Macintosh, GraphPad Software, San Diego Calif., USA).
Compounds with a Ki value of <0.01 μM are marked with “+++.” Compounds with a Ki value >0.01 μM but <1 μM are marked with “++.” Compounds with a Ki value >1 μM but <5 μM are marked with “+.”

Experiment [1] concerns HCT116 colorectal cancer cells. In words: Cisplatin Sensitization Assay (96 h cell viability MTS). The following applies: concentration of compound required to reduce the IC50 of Cisplatin alone by at least 3-fold; HCT116, 96 h MTS. The class given is cell-based. As for the experimental part: Compounds can be screened for their ability to sensitize HCT116 colorectal cancer cells to Cisplatin using a 96 h cell viability (MTS) assay. […] Compounds and Cisplatin are then both added simultaneously to the cell media in 2-fold serial dilutions from a top final concentration of 10 μM as a full matrix of concentrations in a final cell volume of 200 μl, and the cells are then incubated at 37° C. in 5% CO2. After 96 h, 40 μl of MTS reagent (Promega G358a) is added to each well and the cells are incubated for 1 h at 37° C. in 5% CO2. Finally, absorbance is measured at 490 nm using a SpectraMax Plus 384 reader (Molecular Devices) and the concentration of compound required to reduce the IC50 of Cisplatin alone by at least 3-fold (to 1 decimal place) can be reported.
Compounds with a Cisplatin sensitization value of <0.02 μM are marked with “+++.” Compounds with a Cisplatin sensitization value>0.02 μM but <0.2 μM are marked with “++.” Compounds with a Cisplatin sensitization value >0.2 μM but <5 μM are marked with “+.”

T1 sequence (Q13535 whole entry): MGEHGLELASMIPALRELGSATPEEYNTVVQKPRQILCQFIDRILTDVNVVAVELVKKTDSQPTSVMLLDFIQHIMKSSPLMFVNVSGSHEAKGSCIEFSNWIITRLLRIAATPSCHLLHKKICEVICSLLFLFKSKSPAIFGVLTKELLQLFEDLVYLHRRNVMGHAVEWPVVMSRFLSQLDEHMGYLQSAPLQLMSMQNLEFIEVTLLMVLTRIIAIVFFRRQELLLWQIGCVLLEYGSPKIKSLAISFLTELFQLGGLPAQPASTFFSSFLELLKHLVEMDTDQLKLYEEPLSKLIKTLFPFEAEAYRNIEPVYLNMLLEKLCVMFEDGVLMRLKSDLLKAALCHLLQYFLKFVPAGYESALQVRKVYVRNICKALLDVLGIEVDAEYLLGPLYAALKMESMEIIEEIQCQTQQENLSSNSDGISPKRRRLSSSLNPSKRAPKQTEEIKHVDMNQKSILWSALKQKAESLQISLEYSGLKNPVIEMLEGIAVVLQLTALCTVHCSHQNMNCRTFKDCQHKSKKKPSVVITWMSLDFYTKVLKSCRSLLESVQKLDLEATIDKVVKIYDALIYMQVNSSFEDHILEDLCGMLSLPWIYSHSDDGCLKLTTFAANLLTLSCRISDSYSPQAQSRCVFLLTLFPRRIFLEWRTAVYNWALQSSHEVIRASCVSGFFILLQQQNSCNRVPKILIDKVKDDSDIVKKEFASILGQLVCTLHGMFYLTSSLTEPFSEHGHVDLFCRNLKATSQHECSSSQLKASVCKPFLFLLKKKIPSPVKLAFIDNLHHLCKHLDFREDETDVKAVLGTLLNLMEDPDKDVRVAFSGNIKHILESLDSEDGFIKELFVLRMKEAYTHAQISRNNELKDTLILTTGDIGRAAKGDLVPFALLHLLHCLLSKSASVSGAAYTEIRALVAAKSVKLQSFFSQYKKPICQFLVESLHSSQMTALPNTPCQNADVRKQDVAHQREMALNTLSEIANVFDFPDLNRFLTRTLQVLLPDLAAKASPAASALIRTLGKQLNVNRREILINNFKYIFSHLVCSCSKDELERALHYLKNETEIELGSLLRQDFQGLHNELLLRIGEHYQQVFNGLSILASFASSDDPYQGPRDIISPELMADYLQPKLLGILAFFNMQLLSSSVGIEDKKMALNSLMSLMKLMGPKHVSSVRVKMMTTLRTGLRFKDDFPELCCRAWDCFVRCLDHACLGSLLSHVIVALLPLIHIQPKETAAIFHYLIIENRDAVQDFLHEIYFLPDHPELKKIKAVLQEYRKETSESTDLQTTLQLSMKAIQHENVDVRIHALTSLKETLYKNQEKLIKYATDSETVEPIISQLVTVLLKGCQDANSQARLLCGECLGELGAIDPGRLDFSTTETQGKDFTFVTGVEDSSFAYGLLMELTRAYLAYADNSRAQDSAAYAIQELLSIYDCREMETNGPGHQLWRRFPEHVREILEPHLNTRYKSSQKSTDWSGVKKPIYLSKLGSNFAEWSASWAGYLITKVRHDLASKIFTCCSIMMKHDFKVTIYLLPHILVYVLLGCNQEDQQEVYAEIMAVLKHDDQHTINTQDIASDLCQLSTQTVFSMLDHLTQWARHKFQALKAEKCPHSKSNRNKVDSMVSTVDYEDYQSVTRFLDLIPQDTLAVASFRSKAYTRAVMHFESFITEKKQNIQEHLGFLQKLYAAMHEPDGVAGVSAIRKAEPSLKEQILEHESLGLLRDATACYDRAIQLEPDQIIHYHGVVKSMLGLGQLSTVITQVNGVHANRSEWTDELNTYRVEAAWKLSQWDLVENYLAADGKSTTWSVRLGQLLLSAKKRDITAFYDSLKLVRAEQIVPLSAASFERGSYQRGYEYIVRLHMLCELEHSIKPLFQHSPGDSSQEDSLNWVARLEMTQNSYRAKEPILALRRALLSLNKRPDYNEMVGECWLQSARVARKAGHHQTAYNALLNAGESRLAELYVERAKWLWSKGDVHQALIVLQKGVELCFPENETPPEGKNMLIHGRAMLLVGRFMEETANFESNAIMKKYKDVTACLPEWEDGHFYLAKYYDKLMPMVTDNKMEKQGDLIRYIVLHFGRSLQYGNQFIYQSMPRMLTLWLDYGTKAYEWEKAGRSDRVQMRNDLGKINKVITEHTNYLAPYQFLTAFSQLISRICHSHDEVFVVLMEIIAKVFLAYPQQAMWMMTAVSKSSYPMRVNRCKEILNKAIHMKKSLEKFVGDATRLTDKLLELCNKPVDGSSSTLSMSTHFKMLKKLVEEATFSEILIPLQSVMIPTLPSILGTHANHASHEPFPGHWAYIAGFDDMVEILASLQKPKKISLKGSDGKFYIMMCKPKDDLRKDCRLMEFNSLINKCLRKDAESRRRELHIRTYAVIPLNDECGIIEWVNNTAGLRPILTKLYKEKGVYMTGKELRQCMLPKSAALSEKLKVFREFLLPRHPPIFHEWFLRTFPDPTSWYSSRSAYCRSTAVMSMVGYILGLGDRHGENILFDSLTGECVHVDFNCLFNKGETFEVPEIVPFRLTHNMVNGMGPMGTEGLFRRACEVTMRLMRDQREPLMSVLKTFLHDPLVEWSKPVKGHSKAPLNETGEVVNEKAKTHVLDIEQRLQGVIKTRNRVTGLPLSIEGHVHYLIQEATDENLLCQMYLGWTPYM

As for `CN1CCC(Oc2ccncc2NC(=O)c2c(N)nn3ccc(C(F)(F)F)nc23)CC1` [I-O-31, 2-amino-N-(4-((1-methylpiperidin-4-yl)oxy)pyridin-3-yl)-5-(trifluoromethyl)pyrazolo[1,5-a]pyrimidine-3-carboxamide], at ATR kinase, the Ki lay within 10 to 1000 nM. Besides, the “Synergy with Cisplatin” value in experiment [1] was “++ (Compounds with a Cisplatin sensitization value>0.02 μM but <0.2 μM are marked with “++.”)”.
Taken in the same sequence, the figures for `Nc1nn2ccc(C(F)(F)F)nc2c1C(=O)Nc1cnccc1OC1CC2(CNC2)C1` [I-O-32, N-(4-(2-azaspiro[3.3]heptan-6-yloxy)pyridin-3-yl)-2-amino-5-(trifluoromethyl)pyrazolo[1,5-a]pyrimidine-3-carboxamide] were 10 to 1000 nM and “++ (Compounds with a Cisplatin sensitization value>0.02 μM but <0.2 μM are marked with “++.”)”.
As to `CN1CCC[C@H]1COc1ccncc1NC(=O)c1c(N)nn2ccc(C(F)(F)F)nc12` [I-O-33, (S)-2-amino-N-(4-((1-methylpyrrolidin-2-yl)methoxy)pyridin-3-yl)-5-(trifluoromethyl)pyrazolo[1,5-a]pyrimidine-3-carboxamide], the Ki at ATR kinase was 10 to 1000 nM. In addition, the “Synergy with Cisplatin” value in experiment [1] is listed as “++ (Compounds with a Cisplatin sensitization value>0.02 μM but <0.2 μM are marked with “++.”)”.
Taken in the same sequence, the figures for `CN(C)[C@H]1C[C@@H](Oc2ccncc2NC(=O)c2c(N)nn3ccc(C(F)(F)F)nc23)C1` [I-O-34, 2-amino-N-(4-((1s,3s)-3-(dimethylamino)cyclobutoxy)pyridin-3-yl)-5-(trifluoromethyl)pyrazolo[1,5-a]pyrimidine-3-carboxamide] were 10 to 1000 nM and “++ (Compounds with a Cisplatin sensitization value>0.02 μM but <0.2 μM are marked with “++.”)”.
Regarding `CN(C)C1CCC(Oc2ccncc2NC(=O)c2c(N)nn3ccc(C(F)(F)F)nc23)CC1` (stereo not drawn) [I-O-35, 2-amino-N-(4-((4-(dimethylamino)cyclohexyl)oxy)pyridin-3-yl)-5-(trifluoromethyl)pyrazolo[1,5-a]pyrimidine-3-carboxamide], the Ki at ATR kinase fell in the range of 10 to 1000 nM. Moreover, in experiment [1], the “Synergy with Cisplatin” value was “+++ (Compounds with a Cisplatin sensitization value of <0.02 μM are marked with “+++.”)”.
For `CN(C)CCOCCOc1ccncc1NC(=O)c1c(N)nn2ccc(C(F)(F)F)nc12` [I-O-36, 2-amino-N-(4-(2-(2-(dimethylamino)ethoxy)ethoxy)pyridin-3-yl)-5-(trifluoromethyl)pyrazolo[1,5-a]pyrimidine-3-carboxamide] the same measures were 10 to 1000 nM and “++ (Compounds with a Cisplatin sensitization value>0.02 μM but <0.2 μM are marked with “++.”)”.
Taken in the same sequence, the figures for `Nc1nn2ccc(C(F)(F)F)nc2c1C(=O)Nc1cnccc1OCC1CCC(N)CC1` (stereo not drawn) [I-O-37, 2-amino-N-(4-((4-aminocyclohexyl)methoxy)pyridin-3-yl)-5-(trifluoromethyl)pyrazolo[1,5-a]pyrimidine-3-carboxamide] were 10 to 1000 nM and “++ (Compounds with a Cisplatin sensitization value>0.02 μM but <0.2 μM are marked with “++.”)”.
Take `Nc1nn2ccc(C(F)(F)F)nc2c1C(=O)Nc1cnccc1OCCN1CC2(COC2)C1` [I-O-38, N-(4-(2-(2-oxa-6-azaspiro[3.3]heptan-6-yl)ethoxy)pyridin-3-yl)-2-amino-5-(trifluoromethyl)pyrazolo[1,5-a]pyrimidine-3-carboxamide]: at ATR kinase, the Ki fell in the range of 10 to 1000 nM. Also, in experiment [1], the “Synergy with Cisplatin” value is on record as “+ (Compounds with a Cisplatin sensitization value >0.2 μM but <5 μM are marked with “+.”)”.
In the case of `CN1CC[C@H](Oc2ccncc2NC(=O)c2c(N)nn3ccc(C(F)(F)F)nc23)C1` [I-O-40, (S)-2-amino-N-(4-((1-methylpyrrolidin-3-yl)oxy)pyridin-3-yl)-5-(trifluoromethyl)pyrazolo[1,5-a]pyrimidine-3-carboxamide], the Ki at ATR kinase lay within 10 to 1000 nM. The “Synergy with Cisplatin” value in experiment [1] is given as “++ (Compounds with a Cisplatin sensitization value>0.02 μM but <0.2 μM are marked with “++.”)”.
Take `Nc1nn2ccc(C(F)(F)F)nc2c1C(=O)Nc1cnccc1OC1CCNCC1` [I-O-41, 2-amino-N-(4-(piperidin-4-yloxy)pyridin-3-yl)-5-(trifluoromethyl)pyrazolo[1,5-a]pyrimidine-3-carboxamide]: at ATR kinase, the Ki lay within 10 to 1000 nM. Besides, the “Synergy with Cisplatin” value in experiment [1] is reported as “++ (Compounds with a Cisplatin sensitization value>0.02 μM but <0.2 μM are marked with “++.”)”.
Take `CN(C)C1CCC(COc2ccncc2NC(=O)c2c(N)nn3ccc(C(F)(F)F)nc23)CC1` (stereo not drawn) [I-O-42, 2-amino-N-(4-((4-(dimethylamino)cyclohexyl)methoxy)pyridin-3-yl)-5-(trifluoromethyl)pyrazolo[1,5-a]pyrimidine-3-carboxamide]: the Ki on ATR kinase is 10 to 1000 nM. Besides, in experiment [1], the “Synergy with Cisplatin” value is “+++ (Compounds with a Cisplatin sensitization value of <0.02 μM are marked with “+++.”)”.
For `COCCN1CCC[C@@H](Oc2ccncc2NC(=O)c2c(N)nn3ccc(C(F)(F)F)nc23)C1` [I-O-43, (R)-2-amino-N-(4-((1-(2-methoxyethyl)piperidin-3-yl)oxy)pyridin-3-yl)-5-(trifluoromethyl)pyrazolo[1,5-a]pyrimidine-3-carboxamide] the same measures were 10 to 1000 nM and “++ (Compounds with a Cisplatin sensitization value>0.02 μM but <0.2 μM are marked with “++.”)”.
Taken in the same sequence, the figures for `CN(C)C1CCC(Oc2ccncc2NC(=O)c2c(N)nn3ccc(C(F)(F)F)nc23)CC1` (stereo not drawn) [I-O-44, 2-amino-N-(4-(((1s,4s)-4-(dimethylamino)cyclohexyl)oxy)pyridin-3-yl)-5-(trifluoromethyl)pyrazolo[1,5-a]pyrimidine-3-carboxamide] were 1000 to 5000 nM and “+ (Compounds with a Cisplatin sensitization value >0.2 μM but <5 μM are marked with “+.”)”.
On to `CN(C)Cc1ccc(Oc2ccncc2NC(=O)c2c(N)nn3ccc(C(F)(F)F)nc23)cn1` [I-O-45, 2-amino-N-(4-((6-((dimethylamino)methyl)pyridin-3-yl)oxy)pyridin-3-yl)-5-(trifluoromethyl)pyrazolo[1,5-a]pyrimidine-3-carboxamide], for which the Ki at ATR kinase lay within 10 to 1000 nM. Also, the “Synergy with Cisplatin” value in experiment [1] is given as “+++ (Compounds with a Cisplatin sensitization value of <0.02 μM are marked with “+++.”)”.
For `COc1cc(C)ncc1NC(=O)c1c(N)nn2ccc(C(F)(F)F)nc12` [I-O-46, 2-amino-N-(4-methoxy-6-methylpyridin-3-yl)-5-(trifluoromethyl)pyrazolo[1,5-a]pyrimidine-3-carboxamide] the same measures were 10 to 1000 nM and “++ (Compounds with a Cisplatin sensitization value>0.02 μM but <0.2 μM are marked with “++.”)”.
In the case of `COc1cc(Cl)ncc1NC(=O)c1c(N)nn2ccc(C(F)(F)F)nc12` [I-O-47, 2-amino-N-(6-chloro-4-methoxypyridin-3-yl)-5-(trifluoromethyl)pyrazolo[1,5-a]pyrimidine-3-carboxamide], the Ki at ATR kinase lay in the range of 10 to 1000 nM. Further, in experiment [1], the “Synergy with Cisplatin” value was “++ (Compounds with a Cisplatin sensitization value>0.02 μM but <0.2 μM are marked with “++.”)”.
For `COc1c(Cl)cncc1NC(=O)c1c(N)nn2ccc(C(F)(F)F)nc12` [I-O-48, 2-amino-N-(5-chloro-4-methoxypyridin-3-yl)-5-(trifluoromethyl)pyrazolo[1,5-a]pyrimidine-3-carboxamide] the same measures were 10 to 1000 nM and “++ (Compounds with a Cisplatin sensitization value>0.02 μM but <0.2 μM are marked with “++.”)”.
Taken in the same sequence, the figures for `CN1CCC(Oc2c(Cl)cncc2NC(=O)c2c(N)nn3ccc(C(F)(F)F)nc23)CC1` [I-O-49, 2-amino-N-(5-chloro-4-((1-methylpiperidin-4-yl)oxy)pyridin-3-yl)-5-(trifluoromethyl)pyrazolo[1,5-a]pyrimidine-3-carboxamide] were 1000 to 5000 nM and “+ (Compounds with a Cisplatin sensitization value >0.2 μM but <5 μM are marked with “+.”)”.
